From patent publication US9375413B2, “Methods of reducing milk somatic cell count” ([…], priority 2014, dated 2016)

Experiments:
[1] = system: Twin-bearing, multiparous Romney ewes; assay: Milk composition (crude protein, somatic cell count, fat, lactose) and milk yield after L-arginine supplementation from day 100 of pregnancy to parturition (Example 1); type: in vivo, sheep
Source text: (§1) Twin-bearing, multiparous Romney ewes were housed in individual stalls and fed once daily, a lucerne-based pellet diet formulated to meet 100% of the NRC-recommended maintenance requirements for twin-bearing pregnant and lactating ewes throughout the trial.
(§2) From day 100 of pregnancy to parturition, ewes received either an injected bolus of L-arginine-mono-hydrochloride (L-arginine-HCL; Merck KGaA, Darmstadt, Germany; 345 μmol/kg body weight (BW)) or a control being approximately the same volume of sterile saline injected three times daily (0800, 1600, 2400 hrs).
At the first sign of labour induction, which was between 1 and 10 hours (h) prior to birth, L-arginine treatment ceased and ewes were allowed to lamb naturally. In total 25 ewes were used (arginine group, n=13; control group n=12).
Ewes were assigned to milking groups based on parturition date. Collection of a colostrum sample within the 12 h post partum could have compromised animal behaviour and ewe-lamb bond formation. Therefore, a range of 0.58-1.22 days in lactation was produced when the “colostrum” sample was collected. Ewes were then milked approximately at day 1, 4, 7, 10 and 14 of lactation, using the oxytocin method. At each milking, ewes were milked by machine followed by hand stripping, after an intravenous injection of 1 IU of synthetic oxytocin (Oxytocin V, 10 IU/mL). The time when the udder was empty was recorded. Animals were milked again (machine and hand-stripping) approximately 4 h later, with the time and weight of the milk recorded. Lambs were separated from the ewes and bottle-fed as required during the intervening period, using the milk collected from their respective dam. The same operators milked all ewes on each occasion in this study using a mobile milking machine. Milk obtained after the 4 h intervening period was subsampled for analysis of milk composition (% fat, % crude protein (CP), % lactose and somatic cell count). Milk samples were preserved with bronopol and refrigerated at 4° C. until analysis using a FT120-FTIR, calibrated for sheep milk. Two reference checks (fat and CP) were taken during lactation to account for changes in the matrix of the milk due to stage of lactation. Somatic cell counts were determined using a bromide based fluorescent dye and a FOSS flow Cytometer and values log transformed. Ewes were weighed and body condition scored (scale of 1 to 5) once a week.
Throughout milking, dams and offspring were housed in individual pens immediately adjacent to each other. Daily milk yield was calculated. Repeated measures analysis of milk yield and composition using the MIXED procedure with a linear model that included the fixed effects of dam, dam treatment group, and the covariates average dam live weight, average dam body condition score and days in lactation were included in the model. From the 25 ewes available only 18 were used for statistical analysis (arginine group n=8; control group n=10).

[2] = system: Twin-bearing, multiparous Romney ewes; assay: Milk free amino acid profiles by HPLC (Example 1); type: in vivo, sheep; details: saline-treated controls compared to L-arginine treated ewes
Source text: as §1, §2
Milk free amino acids (FAA) were analysed using High-Performance Liquid Chromatography (HPLC). Skim milk (500 μL) was mixed with 500-4, lithium extraction buffer (14 g/L lithium chloride, 3 g/L lithium hydroxide, 1 g/L phenol, 50 g/L sulfosalic acid) and placed on ice for 15 to 20 min. Volumes of 10-μL lithium hydroxide (5.88 M) were added to the sample to obtain a final pH of 1.5 to 2. This was followed by centrifugation at 13,680×g for 5 min at 4° C., and the resulting supernatant was filtered through a 4 mm 0.2 μm syringe filter. The filtered sample was analysed for FAA using a Shimadzu LC 10Ai HPLC, fitted with a high-efficiency lithium-ion exchange column (3 mm i.d.×150 mm) Injected volumes were 10 μL, the reagent flow rate was 0.3 mL/min, and the run was 162 min between injections, using lithium buffers as elutants and ninhydrin post column derivatization. Free amino acid values are reported as μmol per liter of milk. Differences between treatment groups were analysed using the MIXED procedure (SAS) with a linear model that included the fixed effects of dam, dam treatment group, and the covariates average dam live weight, average dam body condition score and days in lactation were included in the model.

[3] = Effect of i.v. bolus on plasma arginine concentration; type: in vivo, sheep
Experimental: FIG. 4 is a graph from the above study illustrating plasma arginine concentrations immediately prior to (−5 min) and 30, 60 and 180 minutes following an i.v. bolus of arginine or saline (controls) in twin-bearing ewes (n=9/group) at 120 days gestation.
FIG. 5 is a graph from the above study illustrating plasma arginine concentrations 1 hour following a bolus of arginine or saline (controls) and immediately prior to slaughter at day 140 gestation in twin-bearing ewes (n=6/group).
To determine the magnitude of the increase in circulating Arg concentrations following a single bolus (3 boluses were given each day), plasma samples collected from all ewes at day 120 of gestation at time −5 (immediately prior to bolus), 30, 60 and 180 minutes following the bolus (Arg or saline) were analysed for Arg concentration using reverse-phase high-performance liquid chromatography (Sales et al., 2012). Nine ewes per treatment group were randomly selected for analysis.

twin-bearing ewes = assay: Somatic cell count (SCC) in milk after arginine supplementation in mid-late gestation (Example 2); type: in vivo, sheep; details: for somatic cell count (SCC) lower than controls: trend P<0.15
Source text: FIG. 3 is a graph from a further study confirming the effect of arginine supplementation from 100 days gestation to birth in twin-bearing ewes on somatic cell count (SCC) in milk. Data was log transformed for analysis—back transformed values are presented.
In a second experiment ewes were supplemented with arginine during mid-late gestation that stopped at parturition.

sheep = details: not in gestation, one off dose; cited from earlier work
[4] = system: non-gestational (and pre-ruminant) calves; details: cited from earlier work

Q: Which “MSC count compared to control animals” value ([1]; between day 1 and day 4 post parturition and administration stopping) does the source give for Cl.N=C(N)NCCC[C@H](N)C(=O)O [L-arginine, L-arginine-mono-hydrochloride] here?
A: significantly lower

Q: What about the “Milk somatic cell counts” value ([1]; day 4-14 of lactation, compared to saline-treated controls) of the same molecule?
A: decreased

Q: And the MSC counts ([1]; ewes treated with L-arginine, untreated ewes higher than 500,000)?
A: below 300,000

Q: What about the fat percentage ([1]; milk, day 1 of lactation, saline-treated controls compared to L-arginine treated ewes) of the same molecule?
A: trend for increased fat percentage at day 1 in saline-treated controls

Q: What about the Crude protein percentage ([1]; milk, day 4-7 of lactation, compared to saline-treated controls, 345 μmol/kg BW three times daily) of the same molecule?
A: increased

Q: What about the “crude milk protein percentage” value ([1]; milk, day 14 of lactation, saline-treated controls compared to L-arginine-treated ewes) of the same molecule?
A: trend for increased crude milk protein percentage was observed in saline-treated controls

Q: What about the lactose percentage ([1]; milk, post parturition, versus saline-treated controls) of the same molecule?
A: No effect

Q: And the “duration of protective response in terms of milk somatic cell count” value ([1]; post administration (administration day 100 to parturition))?
A: at least 14 days

Q: What about the milk yield ([1]; post parturition, versus saline-treated controls) of the same molecule?
A: No effect

Q: What about the “absolute milk free concentration of histidine” value ([2]; day 7 post parturition) of the same molecule?
A: significantly decreased in saline-treated controls

Q: And the “absolute milk free concentration of phenyalanine” value ([2]; day 7 post parturition)?
A: significantly decreased in saline-treated controls

Q: What about the “absolute milk free concentration of tryptophan” value ([2]; day 7 post parturition) of the same molecule?
A: significantly decreased in saline-treated controls

Q: What about the “absolute milk free concentration of tyrosine” value ([2]; day 7 post parturition) of the same molecule?
A: significantly decreased in saline-treated controls

Q: And the milk free asparagine ([2]; day 14 post parturition)?
A: significantly decreased

Q: What about the milk free glutamate ([2]; day 14 post parturition) of the same molecule?
A: trends for decreased

Q: And the milk free leucine ([2]; day 14 post parturition)?
A: trends for decreased

Q: What about the milk free tyrosine ([2]; day 14 post parturition) of the same molecule?
A: trends for decreased

Q: What about the “increase in circulating Arg concentrations” value ([3]; 30 minutes following single i.v. bolus, day 120 of gestation) of the same molecule?
A: 4 fold

Q: What about the “plasma Arg relative to controls” value ([3]; 1 hour following a bolus, immediately prior to slaughter at 140 days of gestation, P<0.0001) of the same molecule?
A: 4.6 times higher than controls

Q: What about the “time for circulating concentrations of Arg to return to baseline” value ([3]; after i.v. bolus, day 120 of gestation) of the same molecule?
A: ≤ 3 h

Q: And the “elevated circulating Arg concentrations relative to control” value ([3]; until at least 60 minutes post-dosage, single i.v. bolus, day 120 of gestation)?
A: 3 times the control

Q: And the “variation in SCC between animals” value (twin-bearing ewes; control compared to arginine-supplemented ewes, at each time-point and over time)?
A: greater in the control

Q: And the “somatic cell count (SCC) lower than controls” value (twin-bearing ewes; day 1 (colostrum) of lactation)?
A: 77%

Q: What about the “somatic cell count (SCC) lower relative to controls” value (twin-bearing ewes; day 7 of lactation) of the same molecule?
A: ~75%

Q: And the “somatic cell count (SCC) lower than controls” value (twin-bearing ewes; day 10 of lactation)?
A: 53%

Q: And the “somatic cell count (SCC) lower relative to controls” value (twin-bearing ewes; day 14 of lactation)?
A: ~75%

Q: What about the SCC in milk (twin-bearing ewes; throughout the period of study, control ewes 787,000-2,594,000 cells/ml) of the same molecule?
A: 366,000-589,000 cells/ml

Q: What about the “plasma white blood cell levels” value (sheep) of the same molecule?
A: increase in white blood cell levels

Q: And the “antibody production in plasma” value [4]?
A: reduction in antibody production
